In patent publication US20060135415A1, “Immunomodulation and effect on cell processes relating to serotonin family receptors and the blood-brain barrier” (priority 2002, published 2006):
“Also recorded” adds a separate entry of the source.

Experiments:
[1] = system: ConA stimulated human lymphocytes; test: Viable cell counts (trypan blue) during ConA stimulation; format: cell-based; settings: 10 μg/ml ConA, manual counts over time (FIG. 11)
Procedure: FIG. 11 is a diagram depicting the effect of a 5HT type 1 receptor antagonist and a 5HT type 2 receptor antagonist on the cell numbers occurring during the mitogenic stimulation of human lymphocyte activation. The cells were stimulated with 10 μg/ml ConA. The cells were repurified on a Ficoll gradient prior to addition of the inhibitor. Trypan blue exclusion was used to count the viable cells.
To further assess the effects of propanolol (a general 5-HTR 1 antagonist) and risperidone (a general 5-HTR 2 antagonist) on the mitogenically stimulated lymphocyte culture, the number of viable cells were manually counted as the assay progressed. If the cells were not stimulated, there was no detectable change in the number of viable cells. When the cells were stimulated with ConA, a small lag period was observed and the beginning of the growth phase compared to the stimulation response curve observed in the absence of the inhibitor. […] Apparently, there is no decrease or increase compared with the starting cell numbers. It is unclear whether or not this is due too anergy, an inability to initiate the activation pathway, or both. […] Thus, based on the data presented here, the classes of antagonists that inhibit the type 2 serotonin receptors appear to be rate limiting for the lymphocyte activation processes.

[2] = system: allogeneic CTL response against P815 cells; test: Murine allograft model, CTL killing of P815 target cells by splenocytes; format: in vivo, C57BL/6J mice; settings: 5HT antagonists 200 μg/injection tail vein days 6 and 8; Cyclosporin A 100 μg ip daily from day −2; sacrifice day 14 (FIGS. 13, 14)
Procedure: The in vivo validation screen used was an art-recognized murine allogeneic rejection model as described in Zhan et al., 2000. For this assay, a complete MHC miss-match system was employed wherein 5×10^6 P815 cells ([H-2^d] DBA/2 mastocytoma) were injected into the peritoneal cavity of C57BL/6J (H-2^b) mice on day 0 of the experiment. These mice typically generate a strong cytotoxic T lymphocyte (CTL) reaction in response to P815 cells. Following the initial P815 cell inoculation, the mice were allowed to develop a CTL response (this usually takes about 10-14 days). […] Mice were then sacrificed on day 14 of the experiment as indicated in the figures; and the allogeneic CTL response was assayed as described previously (Tretiakova et al., 2000, Nature Biotechnology 18:984-988). The primary spleen cells from the treated and untreated animals were used in the direct CTL readout. Freshly obtained primary spleen cells were incubated with the [^3H] labeled target cells (P815 cells) at 100:1, 50:1, 25:1, and 12.5:1 ratios for 3.5 hours at 37° C. and harvested using a PHD harvester. The percentage of specific killing was determined using the formula % kill=(S−E)/S, where S is the amount of the DNA retained by the target cells in the absence of the effector cells and E is the amount of retained DNA in the presence of the effector cells (expressed in counts per minute; cpm).
This is an art-recognized model of allograft […] rejection based on that described by […]. (2000). In this model, there is a complete MHC mismatch between the P815 cells (H-2^d) and the C57BL6 mouse (H-2^b), thus ensuring an aggressive immune response. The data disclosed in FIG. 13, depicts results of experiments that included 6 treatment groups, each group consisting of three mice. Each mouse received 5×10^6 P815 cells injected into the peritoneal cavity on day 0 of the study. The first group was an untreated control group, which was used to establish the baseline response of the mice against the allogeneic stimulus. These mice, without any further treatments, were sacrificed, as were the other treatment groups, on day 14 of the study and their splenocytes assayed for target-specific killing of the P815 cells.
The average kill observed for the untreated group was about 45% at an effector to target ratio of 100:1. The second group was treated with risperidone, a 5HT-2 antagonist, administered via a tail vein bolus injection (200 μg/injection) on days 6 and 8 of the study. The timing of the drug administration was selected to ensure that the T cells were fully activated prior to the drug treatment. The third group was treated with propanolol, a 5HT-1 antagonist. All of the 5HT receptor antagonist-treated groups were treated as described for the risperidone-treated group. The fourth group was treated chronically with CyclosporinA. The Cyclosporin A was administered ip at a dosage of 100 μg/injection starting two days prior to the onset of the study, i.e., at day −2, and the injections were continued on a daily basis for the duration of the study.
Finally, studies conducted in vivo using the CD8-dependent allograft rejection model, in which P815 cells (a rapidly growing cell line taken from a mastocytoma in a DBA mouse), were expanded and used to create a robust rejection response in a C57BL6 mouse. In this study the mice received 5×10^6 P815 cells injected into their peritoneal cavity on day 0 of the study. The first group was an untreated control group (naïve animals), used to acquire the baseline response of the mice against the allogeneic stimulus. The positive controls were treated with the allogeneic cells without any further treatments. These animals were used to assess the induced allogeneic response against the P815 cells. […]

[3] = system: ConA stimulated human lymphocytes; test: Human mitogenic (ConA) stimulation, 3H-thymidine incorporation; format: cell-based
Procedure: Blood from healthy volunteers was drawn using venipuncture, using Vacutainer collection sets and heparinized collection vials. The blood was diluted 1:1 using HBSS to a total volume of 30 ml in 50 ml conical tubes (Fisher Scientific, Co., Pittsburgh, Pa.). […] Cells from the buffy coats were collected and the residual Histopaque was washed away using repeated centrifugations in HBSS. After washes, cells were resuspended at 5 million cells per ml in RPMI, supplemented with 2% FBS. To remove adherent cells, the suspension was plated onto a 6 well flat-bottom plate (Corning Costar), 3 ml/well, and incubated for 2 hours at 37° C., 5% CO2. Non-adherent cells were harvested after this incubation, were counted and resuspended in RPMI supplemented with 10% human serum (Sigma).
All drugs were pre-plated before the cell suspension was added onto each well of a 96-well round-bottom plate. All experimental conditions were assayed in at least triplicate. Cells suspended in RPMI supplemented with 10% human serum were plated at 100,000 cells per well to a final volume of 200 μl. […] Control samples received no ConA stimulation. The plates were incubated at 37° C. and 5% CO2.

[4] = system: allogeneic stimulation of human lymphocytes; test: Human mixed lymphocyte reaction (allogeneic stimulation), 3H-thymidine; format: cell-based
From the text: Blood from two healthy, non-related, donors was taken as described above. Peripheral blood mononuclear cells were isolated as described previously elsewhere. The adherent cells were separated from the suspension cells as described previously for both donors. Suspension cells from both donors (donors A and B) were used as responders. The remaining adherent cells from each of the donors were used as stimulators against a different donor (suspension A against adherent B and adherent A against suspension B). The stimulator cells were irradiated at 35 Gy. Drugs were pre-plated onto 96 well, U-bottom plates in triplicate. 200,000 “stimulator” cells in RPMI supplemented with 10% human serum were then plated in each well. 200,000 “responder” cells in the same medium were then plated over stimulators to a final volume of 200 μl/well. Background controls received either no stimulator cells, or no responder cells. The plates were incubated at 37° C. and 5% CO2. 1 μCi of tritiated thymidine was added to each well after 4.5 days, and the plates were harvested 12 hours later.

[5] = system: RPMI 8226 multiple myeloma cells; test: RPMI 8226 cell viability and proliferation (trypan blue, MTT, 3H-thymidine); format: cell-based, human; settings: 3H-thymidine uptake, drug titration (FIGS. 19-25, 31, 32)
Procedure: The human plasmacytoma (multiple myeloma) cell line, RPMI 8226 (American Type Culture Collection, Manassas, Va.), was cultured in RPMI 1640 supplemented with 10 mM HEPES, 1 mM sodium pyruvate, 4.5 g/L glucose, 1.5 g/L bicarbonate and 20% FBS (non-heat inactivated).
Cell proliferation was assayed by three methods—Trypan Blue Exclusion was used to quantify the number of viable cells in culture; 3-(4,5-dimethylthiazol-2-yl)-2,5-diphenyl tetrazolium bromide (MTT) reduction was used to assay mitochondrial activity (and thus cell viability); and ^3H-Thymidine uptake was employed to assay for active DNA synthesis.
Three separate indicators of cell proliferation were employed to study the effects of 5-HT receptor modulating agents on the human multiple myeloma cell line, RPMI 8226. Cells were plated at 4 separate densities and were treated with LY53587 (an antagonist of the 5-HT2A/2B/2C receptors) at a range of concentrations. The exclusion of trypan blue dye was used as an indicator of cell viability. Cell numbers were then plotted against the concentration of drug added.
MTT reduction was also used as an indicator of cell viability (more specifically, mitochondrial activity). Absorbance values at OD570 were then plotted against drug concentration. Finally, DNA synthesis was assayed, through the measurement of ^3H-thymidine uptake, and counts per minute (CPMs) were plotted against drug concentration.
Culturing and administration of drugs and ^3H-thymidine were performed as described elsewhere herein.

RPMI 8226 cells = test: DNA fragmentation (internucleosomal laddering); format: cell-based, human; settings: RPMI 8226 cells (FIGS. 26, 35)
Procedure: Cells (8×10^5) were washed with ice-cold PBS following experimental treatments and pelleted by centrifugation (500×g, 5 min). Cell pellets were incubated for 5 minutes on ice in lysis buffer (1% IGEPAL-CA630, 20 mM EDTA, 50 mM Tris-HCL, pH 7.5). Lysates were centrifuged at about 1,600×g for 5 minutes. 501 μL of lysis buffer was added to the supernatant. The extract was brought to 1% SDS and treated for 2 hours with 5 μg/μL Rnase A (57° C.) followed by treatment with 2.5 μg/μL proteinase K for 2 hours (37° C.). After digestion of RNA and protein, half volume of 10 M ammonium acetate was added and the DNA was precipitated using 2.5 volumes of ethanol, washed in 70% ethanol, air-dried, and dissolved in TE buffer. DNA fragments were separated by electrophoresis in 1.5% agarose gels using a protocol adapted from Siegel et al. (1998, Proc. Natl. Acad. Sci. USA 95:162-166).

RPMI-8226 cells = test: Cytospin histochemistry (H&E, bis-benzamide) for chromatin; format: cell-based, human; settings: 9 hour treatments; 50 μM SB compounds, 2 μM camptothecin (FIGS. 28, 29)
Procedure: 2.0×10^5 RPMI-8226 cells were cultured, in 6-well culture plates, in the presence of the indicated drug concentrations, in a total of 5 mL RPMI-1640 supplemented with 10% FBS. Each well was harvested in its entirety and divided into two identical samples for cytospins.
1.0×10^5 RPMI-8226 cells from each treatment group were loaded into Cyto-funnels and centrifuged at 500 rpm for 4 minutes with medium acceleration. Slides were then fixed through graded methanol in PBS (100%, 5 minutes; 80%, 5 minutes; 50%, 5 minutes), washed for 5 minutes in PBS and stored in PBS at 4° C. until stained.
Cytospun slides were stained with Hematoxylin and Eosin, followed by the nuclear stain, bis-benzamide, rinsed and mounted according to standard staining protocols. Slides were visualized under both brightfield and fluorescent light to generate matched images of the same slide field (see, e.g., FIGS. 28 and 29).

cells = test: Cell morphology change on inhibition of serotonergic signalling; format: cell-based; settings: after 24 hours of treatment (FIG. 30)
Procedure: Briefly, cells were incubated with a 5-HTR antagonist (e.g., a selective type 1B inhibitor SD 216641) and the effects of treatment were assessed after 24 hours. […] For instance, detection of cell changes can be assessed using optical instruments (electron and light microscopy, as well as fluorescence activated cell sorting, and the like), or any other device that assesses and detects changes in cell size, density, morphology, and the like. Such devices are well known in the art and are not recounted here.

AKT = test: Western blot of phospho-(ser473)-AKT; format: cell-based, human; settings: RPMI-8226 cells, 0, 6.25, 12.5, 25 μM for 3 hours (FIG. 37)
Procedure: 5×10^6 cells RPMI-8226 cells were treated with 0, 6.25, 12.5, and 25 μM SB216641 for 3 hours. Cells were lysed in lysis buffer (1% IGEPAL CA-635, 150 mM NaCl, 20 mM Tris-Cl pH 7.4, 1 mM PMSF, 1 mM EGTA, 1 mM NaF, 1 μg/mL aprotinin, 10 μg/mL leupeptin, 1 mM Na2OVa, 5 mM BGP) on ice for 15 minutes followed by centrifugation for 10 min to clear the lysate of membrane fragment. Supernatants were collected and protein concentrations determined with the BioRad Detergent Compatible Kit (Hercules, Calif.).
One-hundred micrograms of protein were loaded into each lane and separated through a 4% SDS-PAGE stacking gel and a 12% SDS-PAGE resolving gel. Proteins were electro-transferred to a 0.2 μm nitrocellulose membrane in transfer buffer (25 mM Tris, 192 mM glycine, 20% methanol, 0.1% SDS). Membranes were immuno-blotted with an anti-phosphoAkt antibody (New England Biolabs, Beverly, Mass.) to the serine-473 phosphorylation residue required for AKT activation and any antibody bound was visualized using an enhanced chemiluminescent system.

| SMILES | number of viable cells [1] | allograft (CTL) response [2] | activation / proliferative response ([3]; 5 μg/ml ConA, harvest 72 hours, drug titration (FIGS. 7A, 8A, 9A, 17, 33)) | IC50 ([3]; ConA stimulation, read-out: apparent IC50) | activation / proliferative response ([4]; allogeneic stimulation, harvest 120 hours, drug titration (FIGS. 7B, 8B, 9B)) | IC50 ([4]; allogeneic stimuli (weaker signal strength), read-out: apparent IC50) | growth / proliferation of RPMI 8226 cells [5] | DNA laddering (RPMI 8226 cells) | chromatin condensation / fragmentation (apoptosis) (RPMI-8226 cells) | change in cell morphology (cells) | phospho-(ser473)-AKT level (AKT) | phospho-(ser473)-AKT level (AKT; listed as SB216641) |
| --- | --- | --- | --- | --- | --- | --- | --- | --- | --- | --- | --- | --- |
| Cc1nc2n(c(=O)c1CCN1CCC(c3noc4cc(F)ccc34)CC1)CCCC2 [risperidone] | caused a brief cell increase, followed by the elimination of the cells in culture | inhibited the allograft response to varying degrees | – | – | – | – | – | – | – | – | – | – |
| COc1ccc(NC(=O)c2ccc(-c3ccc(-c4noc(C)n4)cc3C)cc2)cc1OCCN(C)C [SB 216641] | – | – | complete inhibition of the activation response | ~200 nM | complete inhibition of the activation response | ~50 nM | completely inhibited the growth of the cancer cells | increase in DNA laddering over control cell extracts | Extensive chromatin condensation and nuclear fragmentation; also recorded: induced programmed cell death comparable to that induced by the topoisomerase I inhibitor, camptothecin | an increase in cell size | down-regulates the activity of AKT | dose dependant decrease in phosphor-(ser473)-AKT |
